The values below come from article PMC10619477 (RSC Advances, 2023).

The nature of data set [1]: DPPH radical scavenging assay. The data set is classed as biochemical. Particulars: for DPPH inhibiting rate: in the presence of 0.5 mM compounds; for IC50: read-out: DPPH (IC50), mean ± SEM, three determinations.
A short description of data set [2]: ABTS radical cationic decolorization assay. Particulars: read-out: ABTS (IC50); concentration that inhibits 50% of free radicals, mean ± SEM. The data set is classed as biochemical.
A short description of data set [3]: in vitro. Particulars: PAMPA. In general terms: The PAMPA barrier holds no transporters, so it reflects passive diffusion.
For data set [4] the following is noted: from PAMPA-BBB Pe.
The test system of data set [5] is SH-SY5Y cells. Particulars: MTT; for Cytotoxicity on SH-SY5Y cells (in words): 0–80 μM.
Data set [6] deals with MMP in H2O2-incubated SY5Y cells. Description: Mitochondrial membrane potential assay. The settings on record: 10 μM, 100 μM H2O2 24 h, JC-1.
In data set [7] the test system is intracellular ROS in H2O2-injured SY5Y cells. Description: Intracellular ROS levels. The data set is classed as cell-based, Human. Particulars: 0.1, 1 or 10 μM, 100 μM H2O2 24 h, DCFH-DA.
For data set [8], the system named is intracellular GSH in H2O2-injured SY5Y cells. As to the kind of experiment: Total glutathione. The data set is classed as cell-based, Human. Particulars: pretreatment with 10 μM, 100 μM H2O2.
Data set [9] has as its system SH-SY5Y cells exposed to 100 μM H2O2. As to the kind of experiment: Protection of SH-SY5Y cells from H2O2-induced oxidative damage. The data set is classed as cell-based, Human.

Marks after values point to notes of the source that are not given here.

`CCCCCCCCNC(=O)Cc1ccc(OC)c(OC)c1` [Compound 3p, 2-(3,4-Dimethoxyphenyl)-N-octylacetamide]: in [1], the “DPPH radical scavenging activity (in words)” value is “little radical scavenging activities” and the DPPH inhibiting rate is listed as 30.48 ± 3.44% ^c.

Consider `O=c1c(O)c(-c2ccc(O)c(O)c2)oc2cc(O)cc(O)c12` [Quercetin, reference compound], for which the IC50 – broadly, the concentration at which inhibition is half-maximal – in data set [1] was determined as 8.7 ± 1.75 µM; in [2], 13.8 ± 2.87 µM.

In the case of `CCCCCCNC(=O)Cc1ccc(OC)c(OC)c1` [Compound 3g, 2-(3,4-Dimethoxyphenyl)-N-hexylacetamide], the apparent permeability coefficient (Papp) (commonly the rate of passage across a membrane or cell layer, normalised by area and donor concentration) at 16 h, 100 mg mL^−1 in [3] was 11.2 ± 0.68 ×10⁻⁶ cm/s. Moreover, in data set [1], the “DPPH radical scavenging activity (in words)” value is given as “little radical scavenging activities” and the DPPH inhibiting rate was found to be 12.76 ± 2.54% ^c. In data set [4], the “Prediction (penetration into CNS)” value is reported as “CNS+ (CNS+ is predicted as high BBB permeation with Pe (×10^−6 cm s^−1) > 4.33)”.

In the case of “2-(3,4-Dimethoxyphenyl)-N-octylacetamide [Compound 3d]”, the IC50 amounted to 67.6 ± 4.74 µM in [1] and 24.3 ± 3.62 µM in data set [2].

Regarding `CCCCCCCCNC(=O)Cc1ccc(O)c(O)c1` [Compound 3q, 2-(3,4-Dihydroxyphenyl)-N-octylacetamide], in data set [3], the apparent permeability coefficient (Papp) at 16 h, 100 mg mL^−1 is 6.54 ± 0.81 ×10⁻⁶ cm/s. The “Cytotoxicity on SH-SY5Y cells (in words)” value in [5] is “strong growth inhibition”. Moreover, the IC50 in [1] amounted to 4.14 ± 1.09 µM; in [2], 21.6 ± 3.69 µM. The “Prediction (penetration into CNS)” value in [4] is “CNS+ (CNS+ is predicted as high BBB permeation with Pe (×10^−6 cm s^−1) > 4.33)”.

As for `CCCCCCCC(=O)NCc1ccc(OC)c(OC)c1` [Compound 3j, N-(3,4-Dimethoxybenzyl)octanamide], in [1], the “DPPH radical scavenging activity (in words)” value is “little radical scavenging activities” and the DPPH inhibiting rate is reported as 22.72 ± 5.47% ^c.

The compound `CCCCCCC(=O)NCc1ccc(OC)c(OC)c1` [Compound 3e, N-(3,4-Dimethoxybenzyl)heptanamide] yielded an apparent permeability coefficient (Papp) at 16 h, 100 mg mL^−1 in data set [3] of 10.8 ± 1.03 ×10⁻⁶ cm/s. Also, in [1], the “DPPH radical scavenging activity (in words)” value is listed as “little radical scavenging activities” and the DPPH inhibiting rate is 27.33 ± 2.88% ^c. The “Prediction (penetration into CNS)” value in data set [4] is “CNS+ (CNS+ is predicted as high BBB permeation with Pe (×10^−6 cm s^−1) > 4.33)”.

Regarding `CCCCCCCCC(=O)NCc1ccc(O)c(O)c1` [Compound 3n, N-(3,4-Dihydroxybenzyl) nonanamide], the Papp at 16 h, 100 mg mL^−1 in data set [3] worked out at 10.1 ± 0.34 ×10⁻⁶ cm/s. For the same compound, the “Cytotoxicity on SH-SY5Y cells (in words)” value in [5] was “strong growth inhibition”. For the same compound, the IC50 was 5.91 ± 0.77 µM in data set [1] and 22.7 ± 2.34 µM in data set [2]. Besides, the “Prediction (penetration into CNS)” value in data set [4] is listed as “CNS+ (CNS+ is predicted as high BBB permeation with Pe (×10^−6 cm s^−1) > 4.33)”.

For `CCCCCCNC(=O)Cc1ccc(O)c(O)c1` [Compound 3h, 2-(3,4-Dihydroxyphenyl)-N-hexylacetamide], the apparent permeability (Papp) at 16 h, 100 mg mL^−1 in data set [3] is 7.68 ± 0.47 ×10⁻⁶ cm/s. The values for the IC50 in [1] and in data set [2] were 4.49 ± 0.74 µM and 18.6 ± 3.03 µM, respectively. The “Prediction (penetration into CNS)” value in data set [4] is given as “CNS+ (CNS+ is predicted as high BBB permeation with Pe (×10^−6 cm s^−1) > 4.33)”.

On to `CCCCCCCC(=O)NCc1ccc(O)c(OC)c1` [Compound 3i, N-(4-Hydroxy-3-methoxybenzyl) octanamide], for which the concentration for half-maximal inhibition (IC50) in data set [1] was determined as 27.9 ± 4.55 µM; in data set [2] it was 13.6 ± 2.9 µM.

`CCCCCCCC(=O)NCc1ccc(O)c(O)c1` [Compound 3k, N-(3,4-Dihydroxybenzyl)octanamide] yielded a Papp at 16 h, 100 mg mL^−1 in data set [3] of 9.23 ± 0.57 ×10⁻⁶ cm/s. Besides, the “Cytotoxicity on SH-SY5Y cells (in words)” value in data set [5] is on record as “little toxicity”. The IC50 in data set [1] was 5.06 ± 1.34 µM; in data set [2], 10.6 ± 1.28 µM. Further, the “H2O2-induced reduction of MMP (in words)” value in data set [6] was “blocked significantly”. Further, the “intracellular ROS fluorescence intensity (in words)” value in [7] was “decreased gradually”. Further, in data set [8], the “H2O2-induced decrease of intracellular GSH (in words)” value is “blocked”. For the same compound, the “Prediction (penetration into CNS)” value in data set [4] is reported as “CNS+ (CNS+ is predicted as high BBB permeation with Pe (×10^−6 cm s^−1) > 4.33)”. For the same compound, in data set [9] (0.1, 1 or 10 μM pretreatment, 100 μM H2O2), the “cell viability under H2O2 (in words)” value is on record as “increased dose-dependently”. Further, the viability – broadly, the share of living cells, or the viability signal relative to a control – at 10 µM in [9] (Homo sapiens, SH-SY5Y, read-out: cell viability) is 90 ± 5.5%.

With `COc1cc(CNC(=O)CCCCCCC(C)C)ccc1O` [Compound 3b, Dihydrocapsaicin], the Papp at 16 h, 100 mg mL^−1 in data set [3] came out at 5.96 ± 0.78 ×10⁻⁶ cm/s. Moreover, the results for the IC50 in data set [1] and in data set [2] were 50.9 ± 4.08 µM and 11.3 ± 1.55 µM, respectively.

As for `CCCCCCCCC(=O)NCc1ccc(O)c(OC)c1` [Compound 3l, N-(4-Hydroxy-3-methoxybenzyl)nonanamide], the IC50 in data set [1] is 27.2 ± 3.47 µM; in data set [2], 44.2 ± 4.65 µM.

Regarding `CCCCCCNC(=O)Cc1ccc(O)c(OC)c1` [Compound 3f, N-Hexyl-2-(4-hydroxy-3-methoxyphenyl)acetamide], the Papp at 16 h, 100 mg mL^−1 in data set [3] was found to be 6.24 ± 0.98 ×10⁻⁶ cm/s. For the same compound, the IC50 is 139 ± 6.89 µM in [1] and 13.1 ± 1.47 µM in [2]. The “Prediction (penetration into CNS)” value in data set [4] is given as “CNS+ (CNS+ is predicted as high BBB permeation with Pe (×10^−6 cm s^−1) > 4.33)”.

As to `CCCCCCCCC(=O)NCc1ccc(OC)c(OC)c1` [Compound 3m, N-(3,4-Dimethoxybenzyl)nonanamide], the Papp at 16 h, 100 mg mL^−1 in data set [3] is 10.6 ± 0.38 ×10⁻⁶ cm/s. Further, in [1], the “DPPH radical scavenging activity (in words)” value is recorded as “little radical scavenging activities” and the DPPH inhibiting rate turned out to be 18.56 ± 2.33% ^c. In addition, in data set [4], the “Prediction (penetration into CNS)” value is reported as “CNS+ (CNS+ is predicted as high BBB permeation with Pe (×10^−6 cm s^−1) > 4.33)”.

In the case of `COc1cc(CNC(=O)CCCC/C=C/C(C)C)ccc1O` [Compound 3a, capsaicin, reference compound], the half-inhibitory concentration (IC50) is 52.1 ± 3.21 µM in [1] and 16.9 ± 1.64 µM in data set [2].

In data set [3], `C[C@]12CC[C@@H]3c4ccc(O)cc4CC[C@H]3[C@@H]1CC[C@@H]2O` [Estradiol, reference compound] registered a Papp at 16 h, 100 mg mL^−1 of 13.2 ± 0.51 ×10⁻⁶ cm/s.

As for `CCCCCCCCNC(=O)Cc1ccc(O)c(OC)c1` [Compound 3o, 2-(4-Hydroxy-3-methoxyphenyl)-N-octylacetamide], the IC50 in [1] stood at 185 ± 9.86 µM; in data set [2] it was 30.9 ± 2.79 µM.

For `CC(C)CCCCCCC(=O)NCc1ccc(O)c(O)c1` [Compound 3c, N-(3,4-Dihydroxybenzyl)-8-methylnonanamide], the Papp at 16 h, 100 mg mL^−1 in data set [3] is 8.45 ± 0.57 ×10⁻⁶ cm/s. In addition, the “Cytotoxicity on SH-SY5Y cells (in words)” value in data set [5] is recorded as “strong growth inhibition”. Besides, the results for the IC50 in [1] and in data set [2] were 7.33 ± 0.98 µM and 16.8 ± 2.1 µM, respectively. In addition, the “Prediction (penetration into CNS)” value in [4] was “CNS+ (CNS+ is predicted as high BBB permeation with Pe (×10^−6 cm s^−1) > 4.33)”.

For the compound `Cn1c(=O)c2c(ncn2C)n(C)c1=O` [Caffeine, reference compound], in data set [3], the Papp at 16 h, 100 mg mL^−1 is 0.79 ± 0.1 ×10⁻⁶ cm/s.

For the compound `OO` [Compound H2O2, H2O2, reference compound], the “inhibition in SH-SY5Y cells” value in data set [5] (H2O2 at 100 μM) was 38.1 ± 7.6%. Also, the “effect on SH-SY5Y cell viability (in words)” value in data set [5] (H2O2 at 25 and 50 μM) is given as “no apparent inhibitory or promotive effects”. Moreover, the “cell viability of H2O2-treated SY5Y cells” value in data set [9] (100 μM H2O2 alone, compared with control (100%)) was determined as 63.3 ± 4.5%.
